The values below come from patent US8263649B2, “Benzofuran type derivatives, a composition comprising the same for treating or preventing cognitive dysfunction and the use thereof” (Medifron DBT Co., Ltd., priority 2006, dated 2012).

One series deals with T1, beta amyloid 1-42 (Homo sapiens, UniProt P05067).
T1 construct: Synthetic beta amyloid 1-42 (BACHEM); purchased BACHEM; host or cells: synthetic peptide
The experiment in a line: Inhibition test of beta amyloid aggregation (Thioflavin T fluorescence). The format is biochemical. The following applies: FIG. 1. As to the method:
Synthetic beta amyloid 1-42 (BACHEM) was dissolved in DMSO in order to 250 μm solution and diluted with PBS into 1/10 on fluorescent black plate to induce aggregation. By comparing with inhibition activity of the tanshinone compounds prepared in Example 1 on beta amyloid aggregation, the test sample showing more than 50% inhibition activity at 10 μg/ml was chosen to use and added to react for 1 hour at room temperature. ThT (Thioflavin T) was diluted with 50 mM glycine buffer solution and the diluted solution was added to each well by 150 μl/well. The absorbance was determined by microplate reader (SAFIRE, TECAN) at 450 nm excitation wavelength/480 nm emission wavelength and the inhibition activity of the test sample on beta amyloid aggregation was transformed into IC50.

For series [1], the system named is HT22 mouse neuronal cell line treated with aggregated beta amyloid 25-35. Briefly: Inhibition test of beta amyloid toxicity (MTT). To be noted: HT22 cells, 25 μm aggregated beta amyloid 25-35, 18 hours. Format: cell-based. The method, then: To determine the inhibitory activity of the compounds prepared in Examples on beta-amyloid toxicity, following test was performed according to the procedure disclosed in the literature (Gillardon, F. et al., Brain Research, 706(1), pp. 169-172, 1996).
HT22 mouse neuronal cell line was incubated in DMEM (Dulbecco's Modified Eagle's Medium, Gibco-BRL) medium supplemented with 10% FBS (Fetal Bovine Serum, Hyclone) and 1% penicillin/streptomycin (Sigma Co.). Prior to test, HT22 cell was incubated on 96 well plates with a density of 5×10^3 cell/well and further incubated in serum free DMEM medium for 1 hour before the treatment of test sample. Various concentration of compounds prepared in Examples used as a test sample was added thereto and incubated for 1 hour. Aggregated beta amyloid 25-35 (US peptide) was treated thereto to the concentration of 25 μm and incubated for 18 hours to induce cell necrosis. 5 mg/ml of MTT (3-(4,5-dimethyl-2-thiazolyl)-2,5-diphenyl-2H-tetrazolium bromide) solution was added each well with 15 μl/well and the well was incubated for 4 hours. Dissolving buffer solution (10% SDS, 50% dimethyl formamide, pH 4.7) was added to each well with 100 μl/well and reacted for overnight. 18 hours after the reaction, the absorbance of solution was determined by microplate reader (SAFIRE, TECAN) at 570 nm/630 nm wavelength (Gillardon, F. et al., Brain Research, 706(1) pp 169-172, 1996).

T1 sequence (P05067 672-713): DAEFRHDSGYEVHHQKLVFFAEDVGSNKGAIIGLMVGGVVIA

The compound `COC(=O)Cc1ccc2oc(-c3ccc(OC)c(OC)c3)cc2c1` [Compound 32a, [2-(3,4-dimethoxyphenyl)-benzofuran-5-yl]acetic acid methyl ester] displayed a melting point of 119 °C. In turn, `COCCc1ccc2oc(-c3ccc(OCOC)c(OC)c3)c(SC)c2c1` [Compound 14a, 5-(2-methoxy-ethyl)-2-(3-methoxy-4-methoxymethoxy-phenyl)-3-methylsulfanyl-benzofuran] registered a melting point of 70 °C. On the same count and under the same terms, the same measure for `COc1ccc(-c2oc3ccc(CCO)cc3c2SC)cc1OC` [Compound 39a, 2-[2-(3,4-dimethoxy-phenyl)-3-methylsulfanyl-benzofuran-5-yl]-ethanol]: 96 °C. For the compound `COCCc1ccc2oc(-c3ccc(OC)c(OC)c3)cc2c1` [Compound 18a, 2-(3,4-dimethoxy-phenyl)-5-(2-methoxy-ethyl)-benzofuran], the melting point was found to be 81 °C. Compound `COc1ccc(-c2cc3cc(CC(=O)O)ccc3o2)cc1OC` [Compound 34a, [2-(3,4-dimethoxy-phenyl)-benzofuran-5-yl]-acetic acid] displayed a melting point of 202 °C. In turn, `COc1ccc(-c2oc3ccc(CC(=O)N4CCN(Cc5ccccc5)CC4)cc3c2SC)cc1OC` registered a melting point of 70 °C.

`COc1ccc(-c2cc3cc(CCO)ccc3o2)cc1OC` [Compound 40a, 2-[2-(3,4-dimethoxy-phenyl)-benzofuran-5-yl]-ethanol] gave a melting point of 122 °C. Turning to `COCCc1ccc2oc(-c3ccc(O)c(OC)c3)cc2c1` [Compound 16a, 2-methoxy-4-[5-(2-methoxy-ethyl)-benzofuran-2yl]-phenol], the melting point is 180 °C.

Consider `COC(=O)Cc1ccc2oc(-c3ccc(OC)c(OC)c3)c(SC)c2c1` [Compound 31a, [2-(3,4-dimethoxy-phenyl)-3-(methylsulfanyl)-benzofuran-5-yl)acetic acid methyl ester], for which the melting point was found to be 91 °C. On the same count and under the same terms, for `COc1ccc(-c2oc3ccc(CC(=O)N4CCN(c5ccccc5)CC4)cc3c2SC)cc1OC` [Compound 37a, 2-[2-(3,4-dimethoxy-phenyl)-3-methylsulfanyl-benzofuran-5-yl)-1-(4-phenyl-piperazin-1-yl)-ethanone] the value was 160 °C; for `COc1ccc(-c2oc3ccc(CC(=O)O)cc3c2SC)cc1OC` [Compound 33a, [2-(3,4-dimethoxy-phenyl)-3-methylsulfanyl-benzofuran-5-yl]-acetic acid], 165 °C. `COCCc1ccc2oc(-c3ccc(O)c(OC)c3)c(SC)c2c1` [Compound 15a, 2-methoxy-4-[5-(2-methoxy-ethyl)-3-methylsulfanyl-benzofuran-2-yl]-phenol] returned a melting point of 67 °C. Also, the “inhibitory effect on the aggregation of beta amyloid” value on beta amyloid 1-42 was “potent inhibition effect”. For the same compound, the “inhibition effect on beta-amyloid toxicity” value in series [1] was “potent inhibition effect”. As to `COCCCc1ccc2oc(-c3ccc(O)c(OC)c3)c(SC)c2c1` [Compound 15b, 2-methoxy-4-[5-(3-methoxy-propyl)-3-methylsulfanyl-benzofuran-2yl]-phenol], the “inhibitory effect on the aggregation of beta amyloid” value at beta amyloid 1-42 is on record as “potent inhibition effect”. In addition, in series [1], the “inhibition effect on beta-amyloid toxicity” value was “potent inhibition effect”. In turn, `COCCc1ccc2oc(-c3ccc(OC)c(OC)c3)c(SC)c2c1` [Compound 17a, 2-(3,4-dimethoxy-phenyl)-5-(2-methoxy-ethyl)-3-methylsulfanyl-benzofuran] gave a melting point of 61 °C.
